Results as given in PMC4904373, “Azole Antifungal Sensitivity of Sterol 14α-Demethylase (CYP51) and CYP5218 from Malassezia globosa” (Scientific Reports, 2016).
Values after ≈ are worked out from the molar mass of the structure shown. Values joined by “and” are separate entries in the source; they are usually repeats but may differ in a detail not shown here. Identical values can stand only once. Like-named read-outs stand apart in the source and are kept apart here.

How the values were obtained:
M. globosa CYP5218 [1] = target: T1, M. globosa CYP5218 (Malassezia globosa, UniProt A8QCD3, A3L/A5L/F6A/I7V/S4L/S8F); settings: 100 μM fatty acid, 1 hour to overnight (~16 h), three different cytochrome P450 reductase redox partners
Experimental: The CYP5218 fatty acid reconstitution assay system used was based on that previously described by Guengerich[54] and contained 200 nM of CYP5218, 500 nM of cytochrome P450 reductase (A. fumigatus CPR1[52]) or H. sapiens CPR[55] or C. albicans CPR[56], 50 μM DLPC, 100 μM fatty acid (lauric acid, myristic acid, palmitic acid, palmitoleic acid, oleic acid and linoleic acid), 4 mM glucose-6-phosphate, 3 U/ml yeast glucose-6-phosphate dehydrogenase in a final volume of 500 μl with 0.1 M potassium phosphate (pH 7.4). Assay mixtures were incubated at 37 °C for 5 min prior to initiation with 4 mM β-NADPHNa4 and then incubated for a further 60 min or overnight (~16 h) at 37 °C. Fatty acid metabolites were recovered by extraction with dichloromethane and dried in a vacuum centrifuge. Samples were derivatized with 200 μl anhydrous pyridine and 250 μl BSTFA:TMCS (99:1) (30 min at 80 °C) and extracted with 500 μl of hexane, prior to analysis by GC/MS (Thermo GC Trace 1300 and ISQ MS). GC analysis was performed with a 5% phenyl methylpolysiloxane column (DB5) (Agilent Technologies). The oven programme was as follows: initial: 70 °C, with 3 min hold; ramp: 10 °C min^−1 to 180 °C (held for 2 min), 10 °C min^−1 to 250 °C (held for 2 min) and 10 °C min^−1 to 280 °C (held for 2 min). Data were analyzed using Thermo Xcalibur 2.2 software.

M. globosa CYP5218 [2] = target: T1, M. globosa CYP5218; experiment: biochemical; type: binding; settings: for Kd / CYP5218 Kd (μM) Eadie-Hofstee / CYP5218 Kd (μM) Michaelis-Menten: 4 μM CYP5218, type I spectra, mean of three replicates with SD; for binding spectra with CYP5218: result in words
Experimental: Reduced carbon monoxide difference spectroscopy[46][47] and absolute spectra between 700 and 300 nm were used to determine cytochrome P450 concentrations. Substrate and azole binding studies were performed[31][48] using 2.5 mM stock sterol solutions in 40% (wt/vol) (2-hydroxypropyl)-β-cyclodextrin (HPCD), 4 mg ml^−1 solutions of fatty acids in dimethylformamide (DMF), and stock 0.05, 0.1 and 0.2 mg ml^−1 solutions of azole antifungal agents in dimethylsulfoxide (DMSO). Sterols were titrated against 5 μM CYP51, fatty acids were titrated against 4 μM CYP5218 and azole antifungal agents were titrated against 2 μM CYP51 and CYP5218. The absorbance difference spectrum between 500 and 350 nm was determined after each incremental addition of ligand with saturation curves constructed from ΔApeak-trough against ligand concentration. […] The dissociation constants of the enzyme-azole complex were determined by non-linear regression (Levenberg-Marquardt algorithm) using a rearrangement of the Morrison equation for tight ligand binding. ProFit 6.1.12 (QuantumSoft, Zurich, Switzerland) was used for curve-fitting data. All ligand-binding studies were performed at 22 ± 2 °C and in triplicate. All spectral determinations were made using a Hitachi U-3310 UV/VIS spectrophotometer (San Jose, California).

M. globosa ATCC MYA-4612 = experiment: M. globosa MIC100 determination; type: cell-based, Malassezia globosa; settings: Malassezia globosa, 168 h; modified Dixon medium, 30 °C, 7 days; read-out: MIC100
Experimental: M. globosa ATCC MYA-4612 was grown for 7 days at 30 °C in modified Dixon medium (3.6% malt extract, 2% desiccated ox-bile, 1% Tween 40, 0.6% peptone, 0.2% glycerol, 0.2% oleic acid, pH adjusted to 6 with HCl) until a culture density of 1.5 × 10^5 cells ml^−1 was obtained. Cells from 3 ml of stock culture were harvested, suspended in 1 ml of saline and used to inoculate 30 ml of fresh modified Dixon medium for use as M. globosa inoculums in MIC determinations. Stock azole concentrations of 1600, 800, 400, 200, 100, 50, 25, 12.5, 6.25, 3.125 and 0 μg ml^−1 were prepared in DMSO. These were diluted ten-fold with fresh modified Dixon media and 20 μl of the diluted azole solutions were then mixed with 180 μl of M. globosa inoculum in microtiter plate wells to yield final azole concentrations of 16, 8, 4, 2, 1, 0.5, 0.25, 0.125, 0.0625, 0.03125 and 0 μg ml^−1. The microtiter plates were incubated at 30 °C for 7 days and then read. Each azole MIC100 determination was performed in triplicate.

M. globosa CYP5218 [3] = target: T1, M. globosa CYP5218; experiment: biochemical; type: binding; settings: for azole binding to CYP5218 (binding spectra): 2 μM CYP5218, result in words; for Kd: azole titrated against 2 μM CYP5218
Experimental: (§1) Reduced carbon monoxide difference spectroscopy[46][47] and absolute spectra between 700 and 300 nm were used to determine cytochrome P450 concentrations. Substrate and azole binding studies were performed[31][48] using 2.5 mM stock sterol solutions in 40% (wt/vol) (2-hydroxypropyl)-β-cyclodextrin (HPCD), 4 mg ml^−1 solutions of fatty acids in dimethylformamide (DMF), and stock 0.05, 0.1 and 0.2 mg ml^−1 solutions of azole antifungal agents in dimethylsulfoxide (DMSO). Sterols were titrated against 5 μM CYP51, fatty acids were titrated against 4 μM CYP5218 and azole antifungal agents were titrated against 2 μM CYP51 and CYP5218. The absorbance difference spectrum between 500 and 350 nm was determined after each incremental addition of ligand with saturation curves constructed from ΔApeak-trough against ligand concentration. The dissociation constants (Kd) for sterols and fatty acids were determined by non-linear regression (Levenberg-Marquardt algorithm) using the Michaelis-Menten equation. The dissociation constants of the enzyme-azole complex were determined by non-linear regression (Levenberg-Marquardt algorithm) using a rearrangement of the Morrison equation for tight ligand binding. ProFit 6.1.12 (QuantumSoft, Zurich, Switzerland) was used for curve-fitting data. All ligand-binding studies were performed at 22 ± 2 °C and in triplicate. All spectral determinations were made using a Hitachi U-3310 UV/VIS spectrophotometer (San Jose, California).

M. globosa CYP51 [4] = target: T2, M. globosa CYP51 (Malassezia globosa, UniProt A8Q3I7, A7V/E4L/G6A/I5L/L2A/Q3L/W8F); experiment: biochemical; type: binding
T2 sequence (A8Q3I7 whole entry L2A/Q3L/E4L/I5L/G6A/A7V/W8F): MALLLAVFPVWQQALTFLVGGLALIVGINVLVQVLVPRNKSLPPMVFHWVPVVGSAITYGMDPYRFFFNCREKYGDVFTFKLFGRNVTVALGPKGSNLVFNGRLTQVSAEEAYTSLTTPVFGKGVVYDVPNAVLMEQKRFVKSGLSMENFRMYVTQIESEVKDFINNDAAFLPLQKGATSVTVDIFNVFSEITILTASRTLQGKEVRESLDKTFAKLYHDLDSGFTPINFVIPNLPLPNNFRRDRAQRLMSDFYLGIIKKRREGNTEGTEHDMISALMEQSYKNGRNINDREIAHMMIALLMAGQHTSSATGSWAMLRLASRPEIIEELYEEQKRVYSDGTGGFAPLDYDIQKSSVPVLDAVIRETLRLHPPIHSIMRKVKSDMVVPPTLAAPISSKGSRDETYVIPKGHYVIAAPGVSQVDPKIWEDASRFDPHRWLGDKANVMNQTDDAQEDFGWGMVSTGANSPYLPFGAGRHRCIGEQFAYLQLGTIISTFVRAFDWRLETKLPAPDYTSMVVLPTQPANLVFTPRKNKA
Experimental: as §1

M. globosa = settings: cited from earlier work
[5] = test system: C=C(CC[C@@H](C)[C@H]1CC[C@@]2(C)C3=C(CC[C@]12C)[C@@]1(C)CC[C@H](O)C(C)(C)[C@@H]1CC3)C(C)C; experiment: purified protein, by the assay type; settings: other: 0.13 μM CYP51, 0.5 μM AfCPR1, 5 min at 37 °C, substrate inhibition equation
Experimental: (§3) Assay mixtures were incubated at 37 °C for 10 minutes prior to initiation with 4 mM β-NADPHNa4 followed by shaking at 37 °C for 20 minutes. Sterol metabolites were recovered by extraction with ethyl acetate followed by derivatization with 0.1 ml N,O-bis(trimethylsilyl)trifluoroacetamide (BSTFA) : trimethylchlorosilane (TMCS) (99:1) and 0.3 ml anhydrous pyridine (2 h at 80 °C) prior to analysis by gas chromatography mass spectrometry (GC/MS)[53].

[6] = test system: C=C(CC[C@@H](C)[C@H]1CC[C@@]2(C)C3=C(CC[C@]12C)[C@@]1(C)CC[C@H](O)[C@@H](C)[C@@H]1CC3)C(C)C; experiment: purified protein, by the assay type; settings: other: 0.13 μM CYP51, 0.5 μM AfCPR1, 5 min at 37 °C, substrate inhibition equation
Experimental: as §3

M. globosa CYP51 [7] = target: T2, M. globosa CYP51; experiment: biochemical; settings: IC50, 0.5 μM CYP51, CYP51:AfCPR1 1:2, 50 μM lanosterol as substrate
Experimental: (§2) Sterol metabolites were recovered by extraction with ethyl acetate followed by derivatization with 0.1 ml N,O-bis(trimethylsilyl)trifluoroacetamide (BSTFA) : trimethylchlorosilane (TMCS) (99:1) and 0.3 ml anhydrous pyridine (2 h at 80 °C) prior to analysis by gas chromatography mass spectrometry (GC/MS)[53].

M. globosa CYP51 [8] = target: T2, M. globosa CYP51; settings: 0.5 μM CYP51, 50 μM sterol substrate
Experimental: as §2

[9] = CYP5218 Kd (μM) Michaelis-Menten

## CCCCC/C=C\C/C=C\CCCCCCCC(=O)O [linoleic acid]
M. globosa CYP5218 [1]
  product formation in CYP5218 reconstitution assay: no observed product formation
M. globosa CYP5218 [2]; CYP5218 Kd (μM) Eadie-Hofstee
  Kd: 36 ± 6 µM
M. globosa CYP5218 [2]; [9]
  Kd: 36 µM

## CCCCCCCC/C=C\CCCCCCCC(=O)O [Oleic acid, oleic acid]
M. globosa CYP5218 [1]
  product formation in CYP5218 reconstitution assay: no observed product formation
M. globosa CYP5218 [2]; CYP5218 Kd (μM) Eadie-Hofstee
  Kd: 90 ± 16 µM
M. globosa CYP5218 [2]; [9]
  Kd: 93 ± 11 µM

## CCCCCCCCCCCCCCCCCCCC(=O)O [Arachidic acid, arachidic acid]
M. globosa CYP5218 [2]
  CYP5218 Kd (μM) Eadie-Hofstee: no binding
  CYP5218 Kd (μM) Michaelis-Menten: no binding
  binding spectra with CYP5218: No binding spectra

## Clc1ccccc1C(c1ccccc1)(c1ccccc1)n1ccnc1 [clotrimazole]
M. globosa ATCC MYA-4612
  MIC: 8 µg/mL (≈ 23.2 µM)
M. globosa CYP5218 [3]
  azole binding to CYP5218 (binding spectra): type II binding spectra
  Kd: ~500 nM and 486 nM
M. globosa CYP51 [4]
  Kd: 4 ± 2 nM

## C=CCCCCCCCCCCCCCC [1-hexadecene]
M. globosa CYP5218 [2]
  binding spectra with CYP5218: No binding spectra

## CC[C@@H]([C@H](C)O)n1ncn(-c2ccc(N3CCN(c4ccc(OC[C@@H]5CO[C@@](Cn6cncn6)(c6ccc(F)cc6F)C5)cc4)CC3)cc2)c1=O [posaconazole]
M. globosa
  MIC values previously reported: 0.06 µg/mL (≈ 0.0856 µM)

## C[C@@H](c1ncncc1F)[C@](O)(Cn1cncn1)c1ccc(F)cc1F [voriconazole]
M. globosa ATCC MYA-4612
  MIC: 1 µg/mL (≈ 2.86 µM)
M. globosa CYP5218 [3]
  Kd: ~107000 nM
M. globosa CYP51 [4]
  Kd: 8 ± 5 nM

## M. globosa CYP51 (Malassezia globosa CBS 7966; A7V/E4L/G6A/I5L/L2A/Q3L/W8F)
[5]
  Km: 55.91 ± 19.79 µM
  kcat: 1.092 ± 0.2675 s⁻¹
[6]
  Km: 42.09 ± 10.45 µM
  kcat: 0.8948 ± 0.2368 s⁻¹

## CC/C=C\CCCCCCCC(=O)O [Lauroleic acid, lauroleic acid]
M. globosa CYP5218 [2]
  CYP5218 Kd (μM) Michaelis-Menten: poor fit
M. globosa CYP5218 [2]; read-out: CYP5218 Kd (μM) Eadie-Hofstee
  Kd: 148 ± 20 µM

## CCC(C)n1ncn(-c2ccc(N3CCN(c4ccc(OCC5COC(Cn6cncn6)(c6ccc(Cl)cc6Cl)O5)cc4)CC3)cc2)c1=O (centres unmarked) [itraconazole]
M. globosa CYP51 [7]
  IC50: 188 ± 8 nM
M. globosa ATCC MYA-4612
  MIC: 0.0625 µg/mL (≈ 0.0886 µM)
M. globosa CYP5218 [3]
  azole binding to CYP5218 (binding spectra): type II binding spectra
  Kd: ~400 nM and 407 nM
M. globosa CYP51 [4]
  Kd: 2 ± 1 nM

## CCCCCCCCCC(=O)O [Capric acid, capric acid]
M. globosa CYP5218 [2]
  CYP5218 Kd (μM) Eadie-Hofstee: no binding
  CYP5218 Kd (μM) Michaelis-Menten: no binding
  binding spectra with CYP5218: No binding spectra

## C=C(CC[C@@H](C)[C@H]1CC[C@@]2(C)C3=C(CC[C@]12C)[C@@]1(C)CC[C@H](O)C(C)(C)[C@@H]1CC3)C(C)C [eburicol]
M. globosa CYP51 [8]
  turnover number: 5.6 min⁻¹
M. globosa CYP51 [4]
  Kd: 23000 nM
M. globosa CYP5218 [2]
  binding spectra with CYP5218: failed to give reproducible binding spectra
